Test results: publication PMC5464773 (eLife, 2017)
Read-outs that look alike come from different tables or passages of the source.

Tests used:
SF295 cells = format: cell-based; conditions: for peptide concentration leading to cytochrome c release in unprimed cells: SF295, unprimed, iBH3, 25°C, 1 hr; for Bottom (best-fit value) / HillSlope (best-fit value) / Top (best-fit value) / LogEC50 (best-fit value): SF295 cells, iBH3 fit, sigmoidal dose-response (variable slope); for LogEC50 (best-fit value): log of peptide concentration in M
Description: To test the possibility that FS1, FS2 or FS3 may directly activate BAK and BAX, we measured cytochrome c release in two ‘unprimed’ cell lines (PC-3 and SF295). Unprimed cells require BAK/BAX activators to release cytochrome c ([Certo et al., 2006]).
(§1) Cell line identities were confirmed by STR profiling.
Plates were incubated at 25°C for 1 hr.

[1] = tested on: BCR-ABL-expressing B-lineage acute lymphoblastic leukemia cells dependent on Bcl-2; assay: BH3 profiling, mitochondrial depolarization (JC-1) in permeabilized cells; format: cell-based; conditions: BH3 profiling fits Bcl-2, sigmoidal dose-response (variable slope); for Bottom (best-fit value): constrained (Bottom < 5 or 0 < Bottom < 5); for Top (best-fit value): constrained (Top > 78 or Top < 100); for LogEC50 (best-fit value): x = Log [Peptide] M, fits ambiguous or hit constraint
Description: We tested our designed peptides for Bfl-1 selective targeting by carrying out BH3 profiling of cells with known dependencies on anti-apoptotic proteins. In this assay, peptides are titrated into permeabilized cells, and mitochondrial depolarization is measured using the voltage-sensitive dye JC-1 (Figure 7A) ([Deng et al., 2007]). We tested the apoptotic sensitivity of BCR-ABL-expressing B-lineage acute lymphoblastic leukemia cell lines engineered to depend on Bcl-2, Bcl-xL, Mcl-1 or Bfl-1 overexpression for survival ([Koss et al., 2016]). […] EC50 values for inducing mitochondrial permeabilization in the engineered cell lines agreed well with trends in Bfl-1-binding affinities, as expected based on the mechanism of action (Figure 7C).
The creation and characterization of the BCR-ABL-expressing B-lineage acute lymphoblastic leukemia suspension cell lines with engineered dependencies on human versions of anti-apoptotic genes is detailed in [Koss et al. (2016)]). Cells were grown in RPMI (Life Technologies, Carlsbad, CA) with 10% fetal bovine serum, 2 mM L-glutamine, 10 mL/L 100x Pen/Strep (Life Technologies # 15140122), 25 mM HEPES and 10 mL/L 100x NEAA (Life Technologies, 11140050). The adherent cell lines PC-3 (RRID: CVCL_0035) and SF295 (RRID: CVCL_1690) are from the NCI60 panel ([Lorenzi et al., 2009]) and were grown in RPMI (Life Technologies) with 10% fetal bovine serum, 2 mM L-glutamine and 10 mL/L 100x Pen/Strep (Life Technologies # 15140122 ). Cell line identities were confirmed by STR profiling. The Lookout Mycoplasma PCR detection kit (Sigma) was used to detect mycoplasma infection. Mycoplasma was only detected in the PC-3 cell line, and internal controls were used to account for this phenotype.
(§2) Peptides were titrated by serial dilution in MEB buffer (150 mM Mannitol, 10 mM HEPES-KOH pH 7.5, 50 mM KCl, 0.02 mM EGTA, 0.02 mM EDTA, 0.1% BSA and 5 mM Succinate) containing 20 μg/mL oligomycin, 50 μg/mL digitonin, 2 μM JC-1 and 10 mM 2-mercaptoethanol in 384-well plates. Controls for no depolarization (1% DMSO) and complete depolarization with the mitochondrial oxidative phosphorylation uncoupler FCCP (20 μM) were included for data normalization. Cells were suspended at 1.67 × 10^6 cells/mL in MEB. 15 μL of cell suspension was added to each well containing 15 μL of treatment solution. Fluorescence emission was measured every 5 min for 3 hr at 590 nM with 525 nm excitation on a Tecan Safire2. To produce percent depolarization, the area under the resultant curve was calculated and normalized to the assay controls. Peptide titration curves were fit to sigmoidal dose-response curves using Graphpad PRISM seven to obtain EC50 values.

Bcl-2 = molecular target: T1, Bcl-2 (Homo sapiens, UniProt P10415); assay: Competition fluorescence polarization (anisotropy) with fluoresceinated BIM; format: binding
T1 construct: c-myc
Description: (§3) Plates were mixed at 23°C for 3 hr. Plates were read again at 24 to check equilibration. Experiments were done in at least triplicate.

Bcl-w = molecular target: T2, Bcl-w (Homo sapiens, UniProt Q92843); assay: as above; format: binding
T2 construct: c-myc
T2 sequence (Q92843 1-193): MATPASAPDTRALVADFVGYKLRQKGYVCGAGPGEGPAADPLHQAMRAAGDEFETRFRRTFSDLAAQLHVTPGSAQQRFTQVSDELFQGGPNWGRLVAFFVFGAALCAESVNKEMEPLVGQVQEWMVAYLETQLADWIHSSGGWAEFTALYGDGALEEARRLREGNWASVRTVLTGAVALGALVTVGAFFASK
Description: as §3

Bcl-xL = molecular target: T3, Bcl-xL (Homo sapiens, UniProt Q07817); assay: as above; format: binding
T3 construct: c-myc
Description: as §3

[2] = tested on: BCR-ABL-expressing B-lineage acute lymphoblastic leukemia cells dependent on Bfl-1; assay: BH3 profiling, mitochondrial depolarization (JC-1) in permeabilized cells; format: cell-based; design: key to Bottom (best-fit value) / Top (best-fit value): % depolarization, normalized to DMSO (0) and FCCP (100) controls; conditions: for mitochondrial depolarization pattern in BH3 profiling: 100 nM peptide, four cell lines engineered to depend on Bcl-2, Bcl-xL, Mcl-1 or Bfl-1, JC-1; for HillSlope (best-fit value) / Bottom (best-fit value) / Top (best-fit value) / LogEC50 (best-fit value): BH3 profiling fits Bfl-1, sigmoidal dose-response (variable slope); for Bottom (best-fit value): constraint Bottom < 5; for Top (best-fit value): constraint Top > 78; for LogEC50 (best-fit value): x = Log [Peptide] M, 55-56 Y values analyzed
Description: as §1
as §2, with “Cells were suspended at 1.67 × 10^6 cells/mL in MEB.” left out, “Fluorescence emission was measured every 5 min for 3 hr at 590 nM with 525 nm excitation on a Tecan Safire2.” left out

[3] = competition FP source data, mean of three replicates, values above 5 μM are reported as > 5 μM in the figures, read-out: mean Ki (M) Bcl-2
[4] = competition FP source data, replicate 1
[5] = competition FP source data, replicate 2
[6] = competition FP source data, replicate 3
[7] = competition FP source data, mean of three replicates, values above 5 μM are reported as > 5 μM in the figures, read-out: mean Ki (M) Bcl-w
[8] = competition FP source data, mean of three replicates, values above 5 μM are reported as > 5 μM in the figures, read-out: mean Ki (M) Bcl-xL
[9] = competition FP, 50 nM c-myc-tagged receptor + 25 nM fluoresceinated BIM, Tris pH 7.8, 23°C, 3 hr, mean ± SD of three replicates, read-out: Ki (nM) Bcl-w

T1 sequence (P10415 whole entry): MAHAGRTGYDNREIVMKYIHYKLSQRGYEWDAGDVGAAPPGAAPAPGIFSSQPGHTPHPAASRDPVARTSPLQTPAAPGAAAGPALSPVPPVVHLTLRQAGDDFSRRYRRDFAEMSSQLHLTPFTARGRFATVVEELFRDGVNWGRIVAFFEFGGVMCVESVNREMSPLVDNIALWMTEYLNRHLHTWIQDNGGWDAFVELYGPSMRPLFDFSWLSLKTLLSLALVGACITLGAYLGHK
T3 sequence (Q07817 whole entry): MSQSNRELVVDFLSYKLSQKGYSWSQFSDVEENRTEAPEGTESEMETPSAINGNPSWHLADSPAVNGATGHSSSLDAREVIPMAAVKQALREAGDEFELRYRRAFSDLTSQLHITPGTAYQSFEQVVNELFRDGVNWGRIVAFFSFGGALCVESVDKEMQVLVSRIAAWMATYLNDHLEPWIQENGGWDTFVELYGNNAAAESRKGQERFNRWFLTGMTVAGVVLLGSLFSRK

| Ki (Bcl-2; [3]) [M] | Ki (M) Bcl-2 (Bcl-2; [4]) [M] | Ki (M) Bcl-2 (Bcl-2; [5]) [M] | Ki (M) Bcl-2 (Bcl-2; [6]) [M] | Ki (Bcl-w; [7]) [M] | Ki (M) Bcl-w (Bcl-w; [4]) [M] | Ki (M) Bcl-w (Bcl-w; [5]) [M] | Ki (M) Bcl-w (Bcl-w; [6]) [M] | Ki (Bcl-xL; [8]) [M] | Ki (M) Bcl-xL (Bcl-xL; [4]) [M] | Ki (M) Bcl-xL (Bcl-xL; [5]) [M] | Ki (M) Bcl-xL (Bcl-xL; [6]) [M] | Substance | peptide concentration leading to cytochrome c release in unprimed cells (SF295 cells) [µM] | HillSlope (best-fit value) [1] | Bottom (best-fit value) [1] | Top (best-fit value) [1] | LogEC50 (best-fit value) [1] | mitochondrial depolarization pattern in BH3 profiling [2] | HillSlope (best-fit value) [2] | Bottom (best-fit value) [2] | further results |
| --- | --- | --- | --- | --- | --- | --- | --- | --- | --- | --- | --- | --- | --- | --- | --- | --- | --- | --- | --- | --- | --- |
| 2.06e-06 | 1.85e-06 | 2.41e-06 | 1.93e-06 | 7.67e-07 | 7.55e-07 | 8.54e-07 | 6.93e-07 | 3.23e-07 | 2.75e-07 | 4.23e-07 | 2.72e-07 | Ac-QWIREIAAGLRRFADILNAQVER-NH2 [FS3] | 30 to 100 | 1.964 | ~ 5 | ~ 100 | -5.077 | promoted depolarization only in Bfl-1 dependent cells | 0.653 | 0.004086 | Bottom (best-fit value) (SF295 cells): 0.0773; HillSlope (best-fit value) (SF295 cells): 2.539; Top (best-fit value) (SF295 cells): 1.042; LogEC50 (best-fit value) (SF295 cells): -4.873; Top (best-fit value) [2]: 83.65; LogEC50 (best-fit value) [2]: -8.381; specificity in BH3 profiling ([2]; four engineered cell lines, FS3 statement holds for JC-1 BH3 profiling and iBH3): significant cross reactivity at 30 μM |
| 5.31e-06 | 8.37e-06 | 4.66e-06 | 2.9e-06 | 7.76e-06 | 5.7e-06 | 7.42e-06 | 1.02e-05 | 2.38e-06 | 2.02e-06 | 2.84e-06 | 2.27e-06 | Ac-QWVREIAAGLRLAADNVNAQLER-NH2 [FS1] | > 100 | 0.3224 | ~ 5 | ~ 78 | ~ -2.821 | promoted depolarization only in Bfl-1 dependent cells | 0.8486 | 1.325 | Bottom (best-fit value) (SF295 cells): ~ -0.1825; HillSlope (best-fit value) (SF295 cells): ~ -14.56; Top (best-fit value) (SF295 cells): 0.01448; LogEC50 (best-fit value) (SF295 cells): ~ -4.046; Ki (Bcl-2; competition FP, 50 nM c-myc-tagged receptor + 25 nM fluoresceinated BIM, Tris pH 7.8, 23°C, 3 hr, mean ± SD of three replicates, read-out: Ki (nM) Bcl-2): > 5e-06 M; Ki (Bcl-w; [9]): > 5e-06 M; Top (best-fit value) [2]: 81.21; LogEC50 (best-fit value) [2]: -7.974 |

| Substance | Ki (Bcl-2; [3]) [M] | Ki (M) Bcl-2 (Bcl-2; [4]) [M] | Ki (M) Bcl-2 (Bcl-2; [5]) [M] | Ki (M) Bcl-2 (Bcl-2; [6]) [M] | Ki (Bcl-w; [7]) [M] | Ki (M) Bcl-w (Bcl-w; [4]) [M] | Ki (M) Bcl-w (Bcl-w; [5]) [M] | Ki (M) Bcl-w (Bcl-w; [6]) [M] | Ki (Bcl-xL; [8]) [M] | Ki (M) Bcl-xL (Bcl-xL; [4]) [M] | Ki (M) Bcl-xL (Bcl-xL; [5]) [M] | Ki (M) Bcl-xL (Bcl-xL; [6]) [M] | peptide concentration leading to cytochrome c release in unprimed cells (SF295 cells) [µM] | HillSlope (best-fit value) [1] | Bottom (best-fit value) [1] | Top (best-fit value) [1] | LogEC50 (best-fit value) [1] | mitochondrial depolarization pattern in BH3 profiling [2] | HillSlope (best-fit value) [2] | Bottom (best-fit value) [2] | further results |
| --- | --- | --- | --- | --- | --- | --- | --- | --- | --- | --- | --- | --- | --- | --- | --- | --- | --- | --- | --- | --- | --- |
| Ac-QWVREIAAGLRRAADDVNAQVER-NH2 [FS2] | 2.41e-06 | 2.55e-06 | 2.86e-06 | 1.82e-06 | 8.27e-06 | 1.14e-05 | 6.45e-06 | 6.96e-06 | 7.07e-06 | 6.54e-06 | 1e-05 | 4.66e-06 | > 100 | 1.067 | ~ 5 | ~ 100 | -4.482 | promoted depolarization only in Bfl-1 dependent cells | 0.7703 | 0.97 | Ki (Bcl-w; [9]): > 5e-06 M; Ki (Bcl-xL; competition FP, 50 nM c-myc-tagged receptor + 25 nM fluoresceinated BIM, Tris pH 7.8, 23°C, 3 hr, mean ± SD of three replicates, read-out: Ki (nM) Bcl-xL): > 5e-06 M; Top (best-fit value) [2]: 84.17; LogEC50 (best-fit value) [2]: -7.679 |
